Key:
[1] = system: Septoria tritici (SEPTTR); test: Septoria tritici test (wheat), field trial FRA-AJ28; format: in vivo; conditions: sprayed twice, 47 DAB, BBCH 77, 75 g/ha (I), 75 g/ha (II), 150 g/ha (III), 75 + 75 + 150 g/ha combination; for Rating Scale: % Rating Type: Mean (Plant Part Rated: LEAF): disease rating, untreated control 95.0
[2] = system: Leptosphaeria nodorum (LEPTNO); test: Leptosphaeria nodorum test (wheat), field trial DEU-S826; format: in vivo; conditions: sprayed twice, 18 DAB, BBCH 69, 75 g/ha (I), 75 g/ha (II), 150 g/ha (III), 75 + 75 + 150 g/ha combination; for Rating Scale: % Rating Type: Mean (Plant Part Rated: LEALOW): disease rating, untreated control 23.1
[3] = system: Pyrenophora tritici-repentis (PYRNTR); test: Pyrenophora tritici-repentis test (wheat), field trial DEU-NWU3; format: in vivo; conditions: sprayed twice, 43 DAB, BBCH 83, 75 g/ha (I), 75 g/ha (II), 150 g/ha (III), 75 + 75 + 150 g/ha combination; for Rating Scale: % Rating Type: Mean (Plant Part Rated: FL-0-1): disease rating, untreated control 2.8
[4] = system: Septoria tritici (Mycosphaerella graminicola); test: Protective and curative potential against Septoria tritici in winter wheat, visual assessment of infested leaf area; format: in vivo; conditions: assessed 21 days after inoculation, dose rates Table 5: BIX 0.6, BIX+FLU 0.75, BIX+PTZ 1, BIX+FLU+PTZ 1 l/ha
[5] = system: Septoria tritici (Mycosphaerella graminicola); test: Protective and curative potential against Septoria tritici in winter wheat, quantification of Septoria-DNA (SeptoCast); format: in vivo; conditions: 21 days after inoculation, dose rates Table 5
[6] = system: Drechslera tritici-repentis (DTR, also named Pyrenophora tritici-repentis); test: Curative potential against Drechslera tritici-repentis (tan spot) in winter wheat; format: in vivo; conditions: infected leaf area 21 days after inoculation; for Efficacy [% Abbott] 1 dai: application 1 day after inoculation; for Efficacy [% Abbott] 4 dai: application 4 days after inoculation
[7] = system: Alternaria alternata SDH-mutants; conditions: in vitro; Avenot et al., Crop Protection 29 (2010) 643-651; cited from earlier work
[8] = curative, application 1 day after inoculation
[9] = curative, application 4 days after inoculation
[10] = curative, application 8 days after inoculation
[11] = curative, application 11 days after inoculation
[12] = preventive, application 1 day before inoculation
[13] = preventive, application 4 days before inoculation
[14] = preventive, application 8 days before inoculation
[15] = preventive, application 11 days before inoculation
[16] = solo compound at 97.5 g a.i./ha

Row | SMILES | Rating Scale: % Rating Type: Mean (Plant Part Rated: LEAF) [1] | % ABBOTT [1] | Efficacy [%] % found [1] | Rating Scale: % Rating Type: Mean (Plant Part Rated: LEALOW) [2] | % ABBOTT [2] | Efficacy [%] % found [2] | Rating Scale: % Rating Type: Mean (Plant Part Rated: FL-0-1) [3] | % ABBOTT [3] | Efficacy [%] % found [3] | Efficacy [% Abbott] 1 dai [6, 16] | Efficacy [% Abbott] 4 dai [6, 16] | Efficacy [% Abbott] 1 dai ([6]; solo compound at 125 g a.i./ha) | Efficacy [% Abbott] 4 dai ([6]; solo compound at 125 g a.i./ha) | effect on mycelial growth of boscalid-resistant isolates carrying SDH-mutations [7] | also measured
1 | OC(Cc1ccccc1Cl)(Cn1nc[nH]c1=S)C1(Cl)CC1 (stereo not shown) [(III) Prothioconazole, prothioconazole] | 30.0% | 68.4% | 68.4% | 6.4% | 72.4% | 72.4% | 1.8% | 36.4% | 36.4% |  |  |  |  |  | 
2 | Cn1cc(C(=O)Nc2ccc(F)cc2-c2ccc(Cl)c(Cl)c2)c(C(F)F)n1 [Bixafen, bixafen] | 36.3% | 61.8% | 61.8% | 14.7% | 36.5% | 36.5% | 2.3% | 18.2% | 18.2% | 91 % Abbott | 38 % Abbott | 91 % Abbott | 32 % Abbott |  | Visual assessment [%] ABBOTT, 1 dai [4, 8]: 100%; Visual assessment [%] ABBOTT, 4 dai [4, 9]: 100%; Visual assessment [%] ABBOTT, 8 dai [4, 10]: 81.1%; Visual assessment [%] ABBOTT, 11 dai [4, 11]: 80.2%; Visual assessment [%] ABBOTT, 1 dbi [4, 12]: 100%; Visual assessment [%] ABBOTT, 4 dbi [4, 13]: 100%; Visual assessment [%] ABBOTT, 8 dbi [4, 14]: 96.7%; Visual assessment [%] ABBOTT, 11 dbi [4, 15]: 88.7%; DNA Quantification [Septoria DNA], relative copynumbers, 1 dai [5, 8]: 135 n; DNA Quantification [Septoria DNA], relative copynumbers, 4 dai [5, 9]: 416 n; DNA Quantification [Septoria DNA], relative copynumbers, 8 dai [5, 10]: 10421 n; DNA Quantification [Septoria DNA], relative copynumbers, 11 dai [5, 11]: 19806 n; DNA Quantification [Septoria DNA], relative copy numbers, 1 dbi [5, 12]: 120 n; DNA Quantification [Septoria DNA], relative copy numbers, 4 dbi [5, 13]: 141 n; DNA Quantification [Septoria DNA], relative copy numbers, 8 dbi [5, 14]: 428 n; DNA Quantification [Septoria DNA], relative copy numbers, 11 dbi [5, 15]: 2853 n
3 | O=C(NCCc1ncc(C(F)(F)F)cc1Cl)c1ccccc1C(F)(F)F [Fluopyram, N-{2-[3-chloro-5-(trifluoromethyl)-2-pyridyl]ethyl}-α,α,α-trifluoro-ortho-toluamide] | 52.5% | 44.7% | 44.7% | 10.9% | 53.0% | 53.0% | 2.3% | 18.2% | 18.2% | 97 % Abbott | 49 % Abbott |  |  | strongly inhibited the mycelial growth | 
4 | Cn1cc(C(=O)Nc2ccccc2-c2cc(F)c(F)c(F)c2)c(C(F)F)n1 [Fluxapyroxad, fluxapyroxad] |  |  |  |  |  |  |  |  |  | 93 % Abbott | 24 % Abbott | 94 % Abbott | 32 % Abbott |  | 
5 | CC(C)CC(C)c1sccc1NC(=O)c1cn(C)nc1C(F)(F)F (stereo not shown) [penthiopyrad] |  |  |  |  |  |  |  |  |  |  |  |  |  | not affected | 

Source: patent US9591856B2, “Fungicide compositions comprising fluopyram, at least one succinate dehydrogenase (SDH) inhibitor and optionally at least one triazole fungicide” (priority 2012, dated 2017)
